Each compound was assayed against T1, human B1R receptor (hB1R) (Homo sapiens, UniProt P46663) (assay: Functional investigation on the bradykinin 1 receptor (B1R), FLIPR Ca2+ assay, hB1R cells). Conditions: 10 μM test substance; CHO K1 cells with human B1R; agonist Lys-Des-Arg9 bradykinin; % of maximum achievable inhibition.
T1 construct: expressed in transfected cells; host or cells: CHO K1 cells
T1 sequence (P46663 1-353): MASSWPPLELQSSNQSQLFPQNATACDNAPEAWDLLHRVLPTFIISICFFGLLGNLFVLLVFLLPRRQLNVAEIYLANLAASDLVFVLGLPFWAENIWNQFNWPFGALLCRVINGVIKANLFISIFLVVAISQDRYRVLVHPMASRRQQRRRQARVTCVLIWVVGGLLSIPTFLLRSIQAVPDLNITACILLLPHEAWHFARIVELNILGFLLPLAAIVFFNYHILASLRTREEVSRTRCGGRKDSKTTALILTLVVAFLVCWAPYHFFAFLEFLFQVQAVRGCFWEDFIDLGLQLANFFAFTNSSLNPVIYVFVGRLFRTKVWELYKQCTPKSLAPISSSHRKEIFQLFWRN
Type: cell-based
Method: The agonistic or antagonistic action of substances can be quantified on the bradykinin 1 receptor (B1R) of the human and rat species with ectopically expressing cell lines (CHO K1 cells) and with the aid of a Ca^2+-sensitive dye (Fluo-4) using a fluorescent imaging plate reader (FLIPR). The indication in % activation is based on the Ca^2+ signal after addition of Lys-Des-Arg^9 bradykinin (0.5 nM) or Des-Arg^9 bradykinin (100 nM). Antagonists lead to a suppression of the Ca^2+ influx following administration of the agonist. The % inhibition in comparison with the maximum achievable inhibition is indicated.
1. Functional Investigation on the Bradykinin 1 Receptor (B1R)
The agonistic or antagonistic action of substances can be determined on the bradykinin 1 receptor (B1R) of the human and rat species with the following assay. According to this assay, the Ca^2+ inflow through the channel is quantified with the aid of a Ca^2+-sensitive dye (Fluo-4 type, Molecular Probes Europe BV, Leiden, Netherlands) in a fluorescent imaging plate reader (FLIPR, Molecular Devices, Sunnyvale, USA).
Chinese hamster ovary cells (CHO K1 cells) which are stably transfected with the human B1R gene (hB1R cells) or the B1R gene of the rat (rB1R cells) are used. For functional investigations these cells are plated-out onto black 96-well plates with a clear base (BD Biosciences, Heidelberg, Germany or Greiner, Frickenhausen, Germany) in a density of 20,000-35,000 cells/well. Overnight the cells are incubated at 37° C. and 5% CO2 in culture medium (hB1R cells: Ham's Nutrient Mixture F12, Gibco Invitrogen GmbH, Karlsruhe, Germany or DMEM, Sigma-Aldrich, Taufkirchen, Germany; rB1R cells: D-MEM/F12, Gibco Invitrogen, Karlsruhe, Germany) with 10 vol. % FBS (foetal bovine serum, Gibco Invitrogen GmbH, Karlsruhe, Germany or PAN Biotech GmbH, Aidenbach, Germany).
On the following day the cells are loaded with 2.13 μM Fluo-4 (Molecular Probes Europe BV, Leiden, Netherlands) in HBSS buffer (Hank's buffered saline solution, Gibco Invitrogen GmbH, Karlsruhe, Germany) with 2.5 mM probenecid (Sigma-Aldrich, Taufkirchen, Germany) and 10 mM HEPES (Sigma-Aldrich, Taufkirchen, Germany) for 60 min at 37° C. The plates are subsequently washed twice with HBSS buffer, and HBSS buffer which additionally contains 0.1% BSA (bovine serum albumin; Sigma-Aldrich, Taufkirchen, Germany), 5.6 mM glucose and 0.05% gelatine (Merck KGaA, Darmstadt, Germany) is added. After a further incubation of 20 minutes at room temperature, the plates are inserted into the FLIPR for Ca^2+ measurement.
Alternatively they are washed with buffer A (15 mM HEPES, 80 mM NaCl, 5 mM KCl, 1.2 mM CaCl2, 0.7 mM MgSO4, 2 g/l glucose, 2.5 mM probenecid) and loaded with buffer A with added 2.5 μM Fluo-4 and 0.025% Pluronic F127 (Sigma-Aldrich, Taufkirchen, Germany). The cells are then washed twice with buffer A and incubated for 30 minutes with buffer A, which additionally contains 0.05% BSA and 0.05% gelatine, at room temperature and then used for Ca^2+ measurement in the FLIPR. The Ca^2+-dependent fluorescence is measured here before and after addition of substances (λex=488 nm, λem=540 nm). The quantification is performed by measuring the highest fluorescence intensity (FC, fluorescence counts) over time.
The FLIPR protocol comprises two additions of substance. Test substances (10 μM) are first pipetted onto the cells and the Ca^2+ inflow is compared with the control (hB1R: Lys-Des-Arg^9 bradykinin>=50 nM; rB1R: Des-Arg^9 bradykinin 10 μM). The value in % activation based on the Ca^2+ signal after addition of Lys-Des-Arg^9 bradykinin (>=50 nM) or Des-Arg^9 bradykinin (10 μM) is obtained therefrom. After incubation for 10-20 minutes, Lys-Des-Arg^9 bradykinin (hB1R) or Des-Arg^9 bradykinin (rB1R) is applied in the EC80 concentration and the inflow of Ca^2+ is likewise determined.
Antagonists lead to a suppression of the Ca^2+ inflow. The % inhibition in comparison with the maximum achievable inhibition is calculated. […]

| B1R antagonism, human [10 μM] % inhibition [%] | Compound |
| --- | --- |
| 100 | COc1cc(C)c(S(=O)(=O)Nc2cccc3ccn(CC(=O)N4CCC5(CC4)CCN(c4ccncc4)CC5)c23)c(C)c1 [Compound G-05, 4-Methoxy-2,6-dimethyl-N-[1-[2-oxo-2-(9-pyridin-4-yl-3,9-diazaspiro[5.5]undecan-3-yl)-ethyl]-1H-indol-7-yl]-benzenesulfonic acid amide] |

Same assay, conditions: CHO-K1, 10 μM test substance; CHO K1 cells with human B1R; agonist Lys-Des-Arg9 bradykinin; % of maximum achievable inhibition; read-out: B1R antagonism, human [10 μM] % inhibition

| Compound | inhibition at 10 µM [%] |
| --- | --- |
| COc1cc(C)c(S(=O)(=O)Nc2cccc3ccn(CC(=O)N4CCC5(CCN(c6ccncc6)CC5)C4)c23)c(C)c1 [Compound G-14, 4-Methoxy-2,6-dimethyl-N-(1-(2-oxo-2-(8-(pyridin-4-yl)-2,8-diazaspiro[4.5]decan-2-yl)ethyl)-1H-indol-7-yl)benzenesulfonic acid amide] | 99 |
| COc1cc(C)c(S(=O)(=O)Nc2cccc3ccn(CC(=O)N4CCC(OCCN5CCCC5)(c5cccnc5)CC4)c23)c(C)c1 [Compound G-06, 4-Methoxy-2,6-dimethyl-N-[1-[2-oxo-2-[4-pyridin-3-yl-4-(2-pyrrolidin-1-yl-ethoxy)-piperidin-1-yl]-ethyl]-1H-indol-7-yl]-benzenesulfonic acid amide] | 83 |
| O=C(Cn1ccc2ccc(N3Cc4cccc(Cl)c4C3=O)cc21)N1CCC2(CC1)CCN(c1ccncc1)CC2 [Compound G-08, 7-Chloro-2-[1-[2-oxo-2-(9-pyridin-4-yl-3,9-diazaspiro[5.5]undecan-3-yl)-ethyl]-1H-indol-6-yl]-2,3-dihydro-isoindol-1-one] | 98 |

Continued, values first:

| inhibition at 10 µM [%] | Compound |
| --- | --- |
| 99 | COc1cc(C)c(S(=O)(=O)Nc2cccc3ccn(CCC(=O)N4CCC5(CC4)CCN(c4ccncc4)CC5)c23)c(C)c1 [G_CC-54, 4-Methoxy-2,6-dimethyl-N-[1-[3-oxo-3-(3-pyridin-4-yl-3,9-diazaspiro[5.5]undecan-9-yl)-propyl]-1H-indol-7-yl]-benzenesulfonic acid amide] |
| 98 | Cc1cccc2c1C(=O)N(c1ccc3ccn(CC(=O)N4CCC5(CC4)CCN(c4ccncc4)CC5)c3c1)C2 [Compound G-26, 7-Methyl-2-[1-[2-oxo-2-(9-pyridin-4-yl-3,9-diazaspiro[5.5]undecan-3-yl)-ethyl]-1H-indol-6-yl]-2,3-dihydro-isoindol-1-one] |
| 43 | O=C(Cn1ccc2ccc(N3Cc4cccc(Cl)c4C3=O)cc21)N1CCC2(CCC(N3CC(F)(F)C3)CC2)CC1 [Compound G-20, 7-Chloro-2-(1-(2-(9-(3,3-difluoroazetidin-1-yl)-3-azaspiro[5.5]undecan-3-yl)-2-oxoethyl)-1H-indol-6-yl)isoindolin-1-one] |
| 100 | COc1cc(C)c(S(=O)(=O)Nc2cccc3ccn(CC(=O)N4CCC5(CC4)CCN(c4ccncc4)CC5)c23)c(C)c1 [G_CC-91, 4-Methoxy-2,6-dimethyl-N-[1-[2-oxo-2-(3-pyridin-4-yl-3,9-diazaspiro-[5.5]undecan-9-yl)-ethyl]-1H-indol-7-yl]-benzenesulfonic acid amide] |
